According to US9249152B2, “Cyano containing azabenzofuran compounds for the treatment of hepatitis C” (BRISTOL-MYERS SQUIBB COMPANY, priority 2014, dated 2016):
Like-named read-outs stand apart in the source and are kept apart here.

System: genotype 1b (Con-1) HCV replicon
Experiment: HCV replicon luciferase assay, genotype 1b (Con-1)
Type: cell-based
Conditions: genotype 1b HCV replicon, Huh-7 cells, Renilla luciferase, 3 days
Experimental: The cell lines used to evaluate compounds consist of a human hepatocyte derived cell line (Huh-7) that constitutively expresses a genotype 1b (Con-1) HCV replicon or a genotype 1b (Con-1) HCV replicon with an asparagine replacing the cysteine at amino acid 316, or a genotype 2a (JFH-1) replicon, containing a Renilla luciferase reporter gene. These cells were maintained in Dulbecco's modified Eagle medium (DMEM) containing 10% FBS, 100 U/mL penicillin/streptomycin and 1.0 mg/mL G418.
To evaluate compound efficacy, titrated compounds were transferred to sterile 384-well tissue culture treated plates, and the plates were seeded with HCV replicon cells (50 μL at a density of 2.4×10^3 cells/well) in DMEM containing 4% FBS (final DMSO concentration at 0.5%). After 3 days incubation at 37° C., cells were analyzed for Renilla Luciferase activity using the EnduRen substrate (Promega cat #E6485) according to the manufacturer's directions. Briefly, the EnduRen substrate was diluted in DMEM and then added to the plates to a final concentration of 7.5 μM. The plates were incubated for at least 1 h at 37° C. then read on a Viewlux Imager (PerkinElmer) using a luminescence program. The 50% effective concentration (EC50) was calculated using the four-parameter logistic formula noted above.

[1] = Hepatitis C virus, Huh-7, 72 h, read-out: EC50 1b (class)
[2] = Hepatitis C virus, Huh-7, 72 h, read-out: EC50 (uM) 1b

Row | SMILES | EC50 [1] | EC50 [2] | EC50 (read-out: EC50 1b (class))
1 | CNC(=O)c1c(-c2ccc(F)cc2)oc2nc(CCC(F)(F)F)c(-c3cc(F)c(F)c(C(=O)NC(C)(C#N)C4CC4)c3)cc12 (stereo not drawn) [Compound 17001] | < 0.1 µM | 0.0018 µM | 
2 | CNC(=O)c1c(-c2ccc(F)cc2)oc2nc(CCC(F)(F)F)c(-c3cccc(C(=O)NC(C)(C#N)C4CC4)c3)cc12 (stereo not drawn) [Compound 11006] |  | 0.0022 µM | < 0.1 µM
3 | CNC(=O)c1c(-c2ccc(F)cc2)oc2nc(NCC(F)(F)C(F)(F)F)c(-c3cccc(C(=O)NC4(C#N)CCCC4)c3)cc12 [Compound 30003] | < 0.1 µM |  | 
4 | CNC(=O)c1c(-c2ccc(F)cc2)oc2nc(CCC(F)(F)F)c(-c3ccc(F)c(C(=O)NC(C)C#N)c3)cc12 (stereo not drawn) [Compound 13004] |  |  | < 0.1 µM
5 | CNC(=O)c1c(-c2ccc(F)cc2)oc2nc(CCC(F)(F)F)c(-c3cc(F)cc(C(=O)NC(C)(C#N)C4CC4)c3)cc12 (stereo not drawn) [Compound 14002] | < 0.1 µM |  | 
6 | CNC(=O)c1c(-c2ccc(F)cc2)oc2nc(NCC(F)(F)F)c(-c3ccc(F)c(C(=O)NC4(C#N)CCCC4)c3)cc12 [Compound K2004] | < 0.1 µM |  | 
7 | CNC(=O)c1c(-c2ccc(F)cc2)oc2nc(NCC(F)(F)F)c(-c3ccc(OC)c(C(=O)NC4(C#N)CCCC4)c3)cc12 [Compound K5003] | < 0.1 µM |  | 
8 | CNC(=O)c1c(-c2ccc(F)cc2)oc2nc(NCC(F)(F)F)c(-c3ccc(F)c(C(=O)NC(C)(C#N)C4CC4)c3)cc12 (stereo not drawn) [Compound 22005] |  |  | < 0.1 µM
9 | CNC(=O)c1c(-c2ccc(F)cc2)oc2nc(NCC(F)(F)F)c(-c3cnc(OC)c(C(=O)NC4(C#N)CC4)c3)cc12 [Compound K8003] | < 0.1 µM |  | 
10 | CNC(=O)c1c(-c2ccc(F)cc2)oc2nc(NCC(F)(F)F)c(-c3ccc(F)c(C(=O)NC4(C#N)CC4)c3)cc12 [Compound K2002] | < 0.1 µM | 0.0034 µM | 
11 | CNC(=O)c1c(-c2ccc(F)cc2)oc2nc(NCC(F)(F)F)c(-c3cccc(C(=O)NC(C)C#N)c3)cc12 (stereo not drawn) [Compound 20003] |  |  | < 0.1 µM
12 | CNC(=O)c1c(-c2ccc(F)cc2)oc2nc(NCC(F)(F)F)c(-c3ccc(OC)c(C(=O)NC(C)(C)C#N)c3)cc12 [Compound 21001] | < 0.1 µM |  | 
13 | CNC(=O)c1c(-c2ccc(F)cc2)oc2nc(NCC(F)(F)F)c(-c3cccc(C(=O)NC(C)(C#N)C4CC4)c3)cc12 (stereo not drawn) [Compound 20006] | < 0.1 µM | 0.0031 µM | 
14 | CNC(=O)c1c(-c2ccc(F)cc2)oc2nc(NCC(F)(F)C(F)(F)F)c(-c3ccc(OC)c(C(=O)NC(C)(C#N)C4CC4)c3)cc12 (stereo not drawn) [Compound 31002] | < 0.1 µM | 0.0061 µM | 
15 | CNC(=O)c1c(-c2ccc(F)cc2)oc2nc(CCC(F)(F)F)c(-c3ccc(OC)c(C(=O)NC(C)(C)C#N)c3)cc12 [Compound 12001] | < 0.1 µM | 0.0025 µM | 
16 | CNC(=O)c1c(-c2ccc(F)cc2)oc2nc(CCC(F)(F)F)c(-c3ccc(F)c(C(=O)NC(C)C#N)c3)cc12 (stereo not drawn) [Compound 13005] |  |  | < 0.1 µM
17 | CNC(=O)c1c(-c2ccc(F)cc2)oc2nc(NCC(F)(F)F)c(-c3cccc(C(=O)NC(C)(C#N)C4CC4)c3)cc12 (stereo not drawn) [Compound 20007] |  |  | < 0.1 µM
18 | CNC(=O)c1c(-c2ccc(F)cc2)oc2nc(Cl)c(-c3ccc(OC)c(C(=O)NC4(C#N)CCC4)c3)cc12 [Compound 10002] | < 0.1 µM |  | 
19 | CNC(=O)c1c(-c2ccc(F)cc2)oc2nc(CCC(F)(F)F)c(-c3ccc(OC)c(C(=O)NC4(C#N)CCC4)c3)cc12 [Compound 12002] | < 0.1 µM |  | 
20 | CNC(=O)c1c(-c2ccc(F)cc2)oc2nc(NCC(F)(F)F)c(-c3ccc(F)c(C(=O)NC(C)C#N)c3)cc12 (stereo not drawn) [Compound 22003] |  |  | < 0.1 µM
21 | CNC(=O)c1c(-c2ccc(F)cc2)oc2nc(CCC(F)(F)F)c(-c3ccc(F)c(C(=O)NC(C)(C#N)C(C)C)c3)cc12 (stereo not drawn) [Compound 13002] | < 0.1 µM | 0.0024 µM | 
22 | CNC(=O)c1c(-c2ccc(F)cc2)oc2nc(Cl)c(-c3cccc(C(=O)NC4(C#N)CCCC4)c3)cc12 [Compound 10006] | < 0.1 µM | 0.076 µM | 
23 | CC[C@@H](C)c1nc2oc(-c3ccc(F)cc3)c(C(=O)NC)c2cc1-c1cccc(C(=O)NC(C)(C)C#N)c1 [Compound K11002] | < 0.1 µM | 0.0044 µM | 
24 | CNC(=O)c1c(-c2ccc(F)cc2)oc2nc(CCC(F)(F)F)c(-c3ccc(F)c(C(=O)NC4(C#N)CC4)c3)cc12 [Compound K1001] | < 0.1 µM | 0.0061 µM | 
25 | CNC(=O)c1c(-c2ccc(F)cc2)oc2nc(NCC(F)(F)F)c(-c3ccc(F)c(C(=O)NC(C)C#N)c3)cc12 (stereo not drawn) [Compound 22002] |  |  | < 0.1 µM
26 | CNC(=O)c1c(-c2ccc(F)cc2)oc2nc(CCC(F)(F)F)c(-c3cnc(OC)c(C(=O)NC(C)(C)C#N)c3)cc12 [Compound K7001] | < 0.1 µM |  | 

Row | SMILES | EC50 [1] | EC50 [2] | EC50 (read-out: EC50 1b (class))
27 | CNC(=O)c1c(-c2ccc(F)cc2)oc2nc(NCC(F)(F)F)c(-c3ccc(OC)c(C(=O)NC(C)(C#N)C(C)C)c3)cc12 (stereo not drawn) [Compound K5004] | < 0.1 µM | 0.0028 µM | 
28 | CNC(=O)c1c(-c2ccc(F)cc2)oc2nc(Cl)c(-c3ccc(OC)c(C(=O)NC(C)(C)C#N)c3)cc12 [Compound 10001] | < 0.1 µM | 0.0738 µM | 
29 | CNC(=O)c1c(-c2ccc(F)cc2)oc2nc(CCC(F)(F)F)c(-c3ccc(OC)c(C(=O)NC4(C#N)CC4)c3)cc12 [Compound K6001] | < 0.1 µM |  | 
30 | CNC(=O)c1c(-c2ccc(F)cc2)oc2nc(NCC(F)(F)F)c(-c3cc(F)cc(C(=O)NC(C)(C)C#N)c3)cc12 [Compound 23002] | < 0.1 µM | 0.0072 µM | 
31 | CNC(=O)c1c(-c2ccc(F)cc2)oc2nc(CCC(F)(F)F)c(-c3cc(F)cc(C(=O)NC(C)(C)C#N)c3)cc12 [Compound 14001] | < 0.1 µM | 0.0022 µM | 
32 | CNC(=O)c1c(-c2ccc(F)cc2)oc2nc(NCC(F)(F)F)c(-c3ccc(F)c(C(=O)NC(C)(C)C#N)c3)cc12 [Compound K2001] | < 0.1 µM |  | 
33 | CNC(=O)c1c(-c2ccc(F)cc2)oc2nc(NCC(F)(F)F)c(-c3ccc(F)c(C(=O)NC(C)(C#N)C(C)C)c3)cc12 (stereo not drawn) [Compound K2005] | < 0.1 µM |  | 
34 | CNC(=O)c1c(-c2ccc(F)cc2)oc2nc(NCC(F)(F)C(F)(F)F)c(-c3ccc(OC)c(C(=O)NC(C)(C#N)C(C)C)c3)cc12 (stereo not drawn) [Compound 31001] | < 0.1 µM |  | 
35 | CNC(=O)c1c(-c2ccc(F)cc2)oc2nc(CCC(F)(F)F)c(-c3cc(C(=O)NC(C)(C#N)C4CC4)ccc3F)cc12 (stereo not drawn) [Compound 15001] | < 0.1 µM |  | 
36 | CNC(=O)c1c(-c2ccc(F)cc2)oc2nc(NCC(F)(F)F)c(-c3cccc(C(=O)NC(C)C#N)c3)cc12 (stereo not drawn) [Compound 20002] | < 0.1 µM |  | 
37 | CNC(=O)c1c(-c2ccc(F)cc2)oc2nc(NCC(F)(F)F)c(-c3cc(F)cc(C(=O)NC(C)(C#N)C4CC4)c3)cc12 (stereo not drawn) [Compound 23001] | < 0.1 µM |  | 
38 | CNC(=O)c1c(-c2ccc(F)cc2)oc2nc(NCC(F)(F)F)c(-c3cc(Cl)c(NCC(F)(F)F)c(C(=O)NC(C)(C)C#N)c3)cc12 [Compound 24001] | < 0.1 µM | 0.0539 µM | 
39 | CNC(=O)c1c(-c2ccc(F)cc2)oc2nc(NCC(F)(F)F)c(-c3cccc(C(=O)NC(C)(C)C#N)c3)cc12 [Compound 20001] | < 0.1 µM |  | 
40 | CNC(=O)c1c(-c2ccc(F)cc2)oc2nc(NCC(F)(F)F)c(-c3cccc(C(=O)NC4(C#N)CCCC4)c3)cc12 [Compound K4001] | < 0.1 µM |  | 
41 | CNC(=O)c1c(-c2ccc(F)cc2)oc2nc(CCC(F)(F)F)c(-c3cc(Cl)c(Cl)c(C(=O)NC(C)(C)C#N)c3)cc12 [Compound 16001] | < 0.1 µM |  | 
42 | CNC(=O)c1c(-c2ccc(F)cc2)oc2nc(CCC(F)(F)F)c(-c3ccc(F)c(C(=O)NC(C)C#N)c3)cc12 (stereo not drawn) [Compound 13003] | < 0.1 µM |  | 
43 | CNC(=O)c1c(-c2ccc(F)cc2)oc2nc(NCC(F)(F)F)c(-c3ccc(F)c(C(=O)NC(C)(C#N)C4CC4)c3)cc12 (stereo not drawn) [Compound 22004] | < 0.1 µM | 0.004 µM | 
44 | CNC(=O)c1c(-c2ccc(F)cc2)oc2nc(CCC(F)(F)F)c(-c3cccc(C(=O)NC4(C#N)CCC4)c3)cc12 [Compound 11002] | < 0.1 µM |  | 
45 | CNC(=O)c1c(-c2ccc(F)cc2)oc2nc(NCC(F)(F)F)c(-c3ccc(OC)c(C(=O)NC4(C#N)CCC4)c3)cc12 [Compound K5001] | < 0.1 µM |  | 
46 | CNC(=O)c1c(-c2ccc(F)cc2)oc2nc(CCC(F)(F)F)c(-c3cnc(OC)c(C(=O)NC4(C#N)CCCC4)c3)cc12 [Compound K7004] | < 0.1 µM |  | 
47 | CNC(=O)c1c(-c2ccc(F)cc2)oc2nc(CCC(F)(F)F)c(-c3cccc(C(=O)NC(C)(C#N)C4CC4)c3)cc12 (stereo not drawn) [Compound 11005] | < 0.1 µM |  | 
48 | CNC(=O)c1c(-c2ccc(F)cc2)oc2nc(NCC(F)(F)F)c(-c3cccc(C(=O)NC4(C#N)CCC4)c3)cc12 [Compound K4002] | < 0.1 µM |  | 
49 | CNC(=O)c1c(-c2ccc(F)cc2)oc2nc(NCC(F)(F)F)c(-c3cccc(C(=O)NC(C)(C#N)C(C)C)c3)cc12 (stereo not drawn) [Compound K4004] | < 0.1 µM | 0.004 µM | 
50 | CNC(=O)c1c(-c2ccc(F)cc2)oc2nc(NCC(F)(F)F)c(-c3cccc(C(=O)NC(C)C#N)c3)cc12 (stereo not drawn) [Compound 20004] |  |  | < 0.1 µM
51 | CNC(=O)c1c(-c2ccc(F)cc2)oc2nc(CCC(F)(F)F)c(-c3cnc(OC)c(C(=O)NC(C)(C#N)C(C)C)c3)cc12 (stereo not drawn) [Compound K7005] | < 0.1 µM | 0.0028 µM | 
